pKd: −log10 of the molar value.
Key:
Carbonic anhydrase 2 [1] = molecular target: T1, Carbonic anhydrase 2 (Homo sapiens, UniProt P00918); assay: Binding affinity to GST-fused human carbonic anhydrase-2 expressed in Escherichia coli BL21 codon plus cells assessed as steady state dissociation constant by SPR method
Carbonic anhydrase 2 [2] = molecular target: T1, Carbonic anhydrase 2; assay: Binding affinity to GST-fused human carbonic anhydrase-2 expressed in Escherichia coli BL21 codon plus cells assessed as dissociation constant by SPR method

| SMILES | pKd (Carbonic anhydrase 2 [1]) | pKd (Carbonic anhydrase 2 [2]) |
| --- | --- | --- |
| CCCc1ccc(S(N)(=O)=O)cc1 | 4.22 | 4.24 |
| CCc1ccc(S(N)(=O)=O)cc1 | 3.90 | 4.01 |
